# Test results: the kinase profiling compilation of Christmann-Franck et al. (2016)
# How the values were obtained:
# Test in all cases: radiometric filter-binding kinase assay
# [1] = test system: AKT2 (human), P31751 [S474D]
# AURKA (human) = AURKA (human) (UniProt O14965)
# AURKB (human) = AURKB (human) (UniProt Q96GD4)
# CHEK1 (human) = CHEK1 (human) (UniProt O14757)
# CSNK1D (human) = CSNK1D (human) (UniProt P48730)
# EEF2K (human) = EEF2K (human) (UniProt O00418)
# EPHB1 (human) = EPHB1 (human) (UniProt P54762)
# EPHB4 (human) = EPHB4 (human) (UniProt P54760)
# FGFR1 (human) = FGFR1 (human) (UniProt P11362)
# FLT1 (human) = FLT1 (human) (UniProt P17948)
# GCK (human) = GCK (human) (UniProt Q12851)
# GSK3B (human) = GSK3B (human) (UniProt P49841)
# HIPK1 (human) = HIPK1 (human) (UniProt Q86Z02)
# HIPK2 (human) = HIPK2 (human) (UniProt Q9H2X6)
# IGF1R (human) = IGF1R (human) (UniProt P08069)
# MAP2K2 (human) = MAP2K2 (human) (UniProt P36507)
# MAP3K1 (human) = MAP3K1 (human) (UniProt Q13233)
# MAP3K5 (human) = MAP3K5 (human) (UniProt Q99683)
# MAP3K9 (human) = MAP3K9 (human) (UniProt P80192)
# MAPK1 (human) = MAPK1 (human) (UniProt P28482)
# MAPK10 (human) = MAPK10 (human) (UniProt P53779)
# MAPK13 (human) = MAPK13 (human) (UniProt O15264)
# MAPK9 (human) = MAPK9 (human) (UniProt P45984)
# MARK4 (human) = MARK4 (human) (UniProt Q96L34)
# MELK (human) = MELK (human) (UniProt Q14680)
# MYLK (human) = MYLK (human) (UniProt Q15746)
# [2] = test system: PAK2 (human), Q13177 [T402E]
# PAK6 (human) = PAK6 (human) (UniProt Q9NQU5)
# PKN2 (human) = PKN2 (human) (UniProt Q16513)
# PRKCZ (human) = PRKCZ (human) (UniProt Q05513)
# SRC (human) = SRC (human) (UniProt P12931)
# [3] = molecular target: STK11 CAB39 STRADA (human) (UniProt Q9Y376+Q7RTN6+Q15831)
# SYK (human) = SYK (human) (UniProt P43405)
# TAOK1 (human) = TAOK1 (human) (UniProt Q7L7X3)
# TTK (human) = TTK (human) (UniProt P33981)
# YES1 (human) = YES1 (human) (UniProt P07947)
# Sequence of MAP2K2 (human) (P36507 whole entry, looked up): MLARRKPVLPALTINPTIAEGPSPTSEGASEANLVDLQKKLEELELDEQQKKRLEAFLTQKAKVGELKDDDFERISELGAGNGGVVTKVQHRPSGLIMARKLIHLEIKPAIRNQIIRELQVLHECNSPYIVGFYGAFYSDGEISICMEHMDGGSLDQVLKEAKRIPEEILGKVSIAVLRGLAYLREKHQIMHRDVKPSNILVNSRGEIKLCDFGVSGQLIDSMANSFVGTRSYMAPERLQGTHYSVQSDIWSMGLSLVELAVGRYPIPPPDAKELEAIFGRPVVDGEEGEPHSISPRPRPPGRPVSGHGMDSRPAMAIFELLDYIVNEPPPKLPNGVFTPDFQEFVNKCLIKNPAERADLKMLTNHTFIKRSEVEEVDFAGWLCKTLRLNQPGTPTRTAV
# Sequence of MAPK10 (human) (P53779 whole entry, looked up): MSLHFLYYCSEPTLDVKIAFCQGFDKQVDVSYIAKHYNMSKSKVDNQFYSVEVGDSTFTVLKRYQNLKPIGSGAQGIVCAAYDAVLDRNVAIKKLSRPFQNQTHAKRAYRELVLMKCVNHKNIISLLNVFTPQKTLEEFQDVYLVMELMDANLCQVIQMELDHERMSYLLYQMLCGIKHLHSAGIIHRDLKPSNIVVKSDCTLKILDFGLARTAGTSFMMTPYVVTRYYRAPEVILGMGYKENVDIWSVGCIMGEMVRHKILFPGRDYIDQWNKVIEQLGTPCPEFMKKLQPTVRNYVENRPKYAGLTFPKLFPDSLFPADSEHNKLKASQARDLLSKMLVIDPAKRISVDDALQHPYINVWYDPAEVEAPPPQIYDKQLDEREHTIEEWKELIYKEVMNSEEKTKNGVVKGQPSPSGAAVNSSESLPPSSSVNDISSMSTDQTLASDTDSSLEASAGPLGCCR
# Sequence of EEF2K (human) (O00418 whole entry, looked up): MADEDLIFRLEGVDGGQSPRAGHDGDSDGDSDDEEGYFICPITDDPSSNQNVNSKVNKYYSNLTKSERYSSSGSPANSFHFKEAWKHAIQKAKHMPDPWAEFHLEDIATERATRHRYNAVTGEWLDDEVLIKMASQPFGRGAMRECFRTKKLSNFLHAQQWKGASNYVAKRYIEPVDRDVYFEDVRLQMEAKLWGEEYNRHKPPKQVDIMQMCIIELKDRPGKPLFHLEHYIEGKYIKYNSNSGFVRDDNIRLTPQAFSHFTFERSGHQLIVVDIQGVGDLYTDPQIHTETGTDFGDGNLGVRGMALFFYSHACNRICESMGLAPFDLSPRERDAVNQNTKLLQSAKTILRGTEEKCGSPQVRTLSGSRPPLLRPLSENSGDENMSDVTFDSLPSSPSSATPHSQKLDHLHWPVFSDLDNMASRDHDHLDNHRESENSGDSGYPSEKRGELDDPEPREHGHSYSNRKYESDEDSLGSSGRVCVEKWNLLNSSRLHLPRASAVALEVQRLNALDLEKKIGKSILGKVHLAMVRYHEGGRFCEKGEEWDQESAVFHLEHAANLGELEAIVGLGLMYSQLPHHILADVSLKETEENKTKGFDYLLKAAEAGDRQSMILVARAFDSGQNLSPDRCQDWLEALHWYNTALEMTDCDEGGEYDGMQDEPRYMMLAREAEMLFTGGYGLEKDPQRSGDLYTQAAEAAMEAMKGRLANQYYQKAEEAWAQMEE
# Sequence of TTK (human) (P33981 whole entry, looked up): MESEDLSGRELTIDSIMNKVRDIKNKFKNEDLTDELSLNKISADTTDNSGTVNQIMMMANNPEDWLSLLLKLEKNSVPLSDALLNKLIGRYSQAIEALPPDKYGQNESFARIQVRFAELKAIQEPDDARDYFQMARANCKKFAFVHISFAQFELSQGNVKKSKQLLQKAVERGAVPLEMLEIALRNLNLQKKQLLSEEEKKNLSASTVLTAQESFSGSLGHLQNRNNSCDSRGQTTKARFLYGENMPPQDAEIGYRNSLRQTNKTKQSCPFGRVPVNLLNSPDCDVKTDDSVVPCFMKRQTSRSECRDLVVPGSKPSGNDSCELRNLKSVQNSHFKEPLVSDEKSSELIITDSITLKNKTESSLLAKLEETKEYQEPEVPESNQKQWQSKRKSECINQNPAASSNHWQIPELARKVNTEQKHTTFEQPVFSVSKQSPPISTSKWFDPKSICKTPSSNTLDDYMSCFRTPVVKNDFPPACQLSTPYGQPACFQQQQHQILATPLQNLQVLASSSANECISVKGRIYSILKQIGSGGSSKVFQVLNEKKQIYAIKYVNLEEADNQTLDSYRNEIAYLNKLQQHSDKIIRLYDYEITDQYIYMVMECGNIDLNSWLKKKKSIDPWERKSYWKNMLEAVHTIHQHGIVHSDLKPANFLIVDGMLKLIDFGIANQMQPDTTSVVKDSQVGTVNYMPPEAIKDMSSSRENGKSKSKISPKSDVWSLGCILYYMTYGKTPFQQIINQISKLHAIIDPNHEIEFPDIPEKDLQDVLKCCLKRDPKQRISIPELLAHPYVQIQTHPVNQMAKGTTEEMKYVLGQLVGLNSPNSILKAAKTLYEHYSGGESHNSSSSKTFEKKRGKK
# Sequence of HIPK2 (human) (Q9H2X6 whole entry, looked up): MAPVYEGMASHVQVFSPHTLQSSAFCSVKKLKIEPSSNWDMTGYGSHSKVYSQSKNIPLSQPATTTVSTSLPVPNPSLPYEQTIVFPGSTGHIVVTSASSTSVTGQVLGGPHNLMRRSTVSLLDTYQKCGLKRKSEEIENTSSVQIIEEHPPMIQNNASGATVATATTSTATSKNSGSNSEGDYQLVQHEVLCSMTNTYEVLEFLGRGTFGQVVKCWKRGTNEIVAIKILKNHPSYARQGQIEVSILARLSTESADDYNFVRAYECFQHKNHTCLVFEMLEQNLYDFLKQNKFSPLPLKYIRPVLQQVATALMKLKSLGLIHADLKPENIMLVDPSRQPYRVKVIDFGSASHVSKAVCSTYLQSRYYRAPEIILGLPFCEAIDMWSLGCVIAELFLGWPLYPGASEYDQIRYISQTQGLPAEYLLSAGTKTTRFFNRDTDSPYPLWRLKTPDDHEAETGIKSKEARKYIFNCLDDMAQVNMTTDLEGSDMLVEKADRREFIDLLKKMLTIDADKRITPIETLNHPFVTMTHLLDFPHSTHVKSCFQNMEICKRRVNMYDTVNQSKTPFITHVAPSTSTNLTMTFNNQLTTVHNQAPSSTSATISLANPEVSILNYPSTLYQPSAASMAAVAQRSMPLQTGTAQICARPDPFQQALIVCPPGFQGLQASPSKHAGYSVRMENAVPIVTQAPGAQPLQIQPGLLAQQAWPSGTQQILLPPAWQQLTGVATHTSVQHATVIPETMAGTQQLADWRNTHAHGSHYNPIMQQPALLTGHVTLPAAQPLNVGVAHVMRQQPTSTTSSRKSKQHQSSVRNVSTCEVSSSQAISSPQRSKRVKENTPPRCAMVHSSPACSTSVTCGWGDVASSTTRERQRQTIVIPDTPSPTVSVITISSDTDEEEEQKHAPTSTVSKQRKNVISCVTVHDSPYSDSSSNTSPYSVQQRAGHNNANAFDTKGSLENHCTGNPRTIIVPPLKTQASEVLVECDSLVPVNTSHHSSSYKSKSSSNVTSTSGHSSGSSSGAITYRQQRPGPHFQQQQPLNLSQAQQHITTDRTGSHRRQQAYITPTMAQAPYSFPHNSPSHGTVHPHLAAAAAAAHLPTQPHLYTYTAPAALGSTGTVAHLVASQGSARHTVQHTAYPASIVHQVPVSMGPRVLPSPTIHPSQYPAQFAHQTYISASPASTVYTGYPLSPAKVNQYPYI
# Sequence of GCK (human) (Q12851 whole entry, looked up): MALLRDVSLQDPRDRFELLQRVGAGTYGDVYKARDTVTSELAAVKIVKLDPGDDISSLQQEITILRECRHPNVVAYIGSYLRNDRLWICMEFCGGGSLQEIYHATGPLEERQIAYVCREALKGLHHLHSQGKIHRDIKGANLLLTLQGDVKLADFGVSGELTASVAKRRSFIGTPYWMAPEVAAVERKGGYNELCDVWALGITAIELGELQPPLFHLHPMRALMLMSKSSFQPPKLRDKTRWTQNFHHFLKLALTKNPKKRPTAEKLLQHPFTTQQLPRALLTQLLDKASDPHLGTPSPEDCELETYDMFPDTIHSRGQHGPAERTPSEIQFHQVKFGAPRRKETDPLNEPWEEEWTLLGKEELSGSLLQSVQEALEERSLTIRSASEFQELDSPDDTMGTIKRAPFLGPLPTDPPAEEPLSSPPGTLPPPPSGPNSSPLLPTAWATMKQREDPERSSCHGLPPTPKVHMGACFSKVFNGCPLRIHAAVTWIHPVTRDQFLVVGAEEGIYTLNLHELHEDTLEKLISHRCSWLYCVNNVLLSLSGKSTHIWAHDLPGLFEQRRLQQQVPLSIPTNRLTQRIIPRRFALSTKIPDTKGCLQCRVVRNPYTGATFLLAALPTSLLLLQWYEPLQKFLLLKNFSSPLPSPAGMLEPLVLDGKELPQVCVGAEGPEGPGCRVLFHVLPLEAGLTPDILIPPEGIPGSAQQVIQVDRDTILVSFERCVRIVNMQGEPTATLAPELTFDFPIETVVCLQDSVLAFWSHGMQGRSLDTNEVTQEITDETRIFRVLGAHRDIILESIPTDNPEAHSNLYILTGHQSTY
# Sequence of PRKCZ (human) (Q05513 whole entry, looked up): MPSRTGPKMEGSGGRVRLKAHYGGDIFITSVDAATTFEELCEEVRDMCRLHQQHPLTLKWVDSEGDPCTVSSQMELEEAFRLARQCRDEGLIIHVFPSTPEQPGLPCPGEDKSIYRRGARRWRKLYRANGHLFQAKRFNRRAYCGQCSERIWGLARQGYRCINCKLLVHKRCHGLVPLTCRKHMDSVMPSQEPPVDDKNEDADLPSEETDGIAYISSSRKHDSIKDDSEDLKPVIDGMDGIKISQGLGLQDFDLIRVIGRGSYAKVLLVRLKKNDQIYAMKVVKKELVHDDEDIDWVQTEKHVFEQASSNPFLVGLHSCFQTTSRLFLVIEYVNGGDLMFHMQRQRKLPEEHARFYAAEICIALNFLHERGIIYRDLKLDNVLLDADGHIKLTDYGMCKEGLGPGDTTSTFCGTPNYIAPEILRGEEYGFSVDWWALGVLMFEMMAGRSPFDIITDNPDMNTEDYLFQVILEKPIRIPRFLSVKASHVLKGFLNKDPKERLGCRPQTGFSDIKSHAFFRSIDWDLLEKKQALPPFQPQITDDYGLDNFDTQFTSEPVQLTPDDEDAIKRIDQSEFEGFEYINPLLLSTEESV
compound,measurement,setting,value
COc1ccc(-n2ncc3cnc(Nc4cc(OC)c(OC)c(OCCCN5CCN(C)CC5)c4)nc32)cc1,residual activity,[1]; compound 0.1 µM,88%
same,residual activity,[1]; compound 1.0 µM,77%
same,residual activity,AURKA (human); compound 0.1 µM,18%
same,residual activity,AURKA (human); compound 1.0 µM,3%
same,residual activity,AURKB (human); compound 0.1 µM,36%
same,residual activity,AURKB (human); compound 1.0 µM,11%
same,residual activity,CHEK1 (human); compound 0.1 µM,72%
same,residual activity,CHEK1 (human); compound 1.0 µM,20%
same,residual activity,CSNK1D (human); compound 0.1 µM,95%
same,residual activity,CSNK1D (human); compound 1.0 µM,69%
same,residual activity,EEF2K (human); compound 0.1 µM,100%
same,residual activity,EEF2K (human); compound 1.0 µM,91%
same,residual activity,EPHB1 (human); compound 0.1 µM,8%
same,residual activity,EPHB1 (human); compound 1.0 µM,3%
same,residual activity,EPHB4 (human); compound 0.1 µM,69%
same,residual activity,EPHB4 (human); compound 1.0 µM,3%
same,residual activity,FGFR1 (human); compound 0.1 µM,20%
same,residual activity,FGFR1 (human); compound 1.0 µM,8%
same,residual activity,FLT1 (human); compound 0.1 µM,5%
same,residual activity,FLT1 (human); compound 1.0 µM,2%
same,residual activity,GCK (human); compound 0.1 µM,29%
same,residual activity,GSK3B (human); compound 0.1 µM,37%
same,residual activity,GSK3B (human); compound 1.0 µM,6%
same,residual activity,HIPK1 (human); compound 0.1 µM,44%
same,residual activity,HIPK1 (human); compound 1.0 µM,17%
same,residual activity,HIPK2 (human); compound 0.1 µM,31%
same,residual activity,HIPK2 (human); compound 1.0 µM,10%
same,residual activity,IGF1R (human); compound 0.1 µM,104%
same,residual activity,IGF1R (human); compound 1.0 µM,6%
same,residual activity,MAP2K2 (human); compound 0.1 µM,55%
same,residual activity,MAP2K2 (human); compound 1.0 µM,28%
same,residual activity,MAP3K1 (human); compound 0.1 µM,103%
same,residual activity,MAP3K1 (human); compound 1.0 µM,92%
same,residual activity,MAP3K5 (human); compound 0.1 µM,99%
same,residual activity,MAP3K5 (human); compound 1.0 µM,77%
same,residual activity,MAP3K9 (human); compound 0.1 µM,7%
same,residual activity,MAP3K9 (human); compound 1.0 µM,6%
same,residual activity,MAPK1 (human); compound 0.1 µM,84%
same,residual activity,MAPK1 (human); compound 1.0 µM,57%
same,residual activity,MAPK10 (human); compound 0.1 µM,65%
same,residual activity,MAPK10 (human); compound 1.0 µM,39%
same,residual activity,MAPK13 (human); compound 1.0 µM,68%
same,residual activity,MAPK9 (human); compound 1.0 µM,33%
same,residual activity,MARK4 (human); compound 1.0 µM,24%
same,residual activity,MELK (human); compound 0.1 µM,37%
same,residual activity,MELK (human); compound 1.0 µM,27%
same,residual activity,MYLK (human); compound 0.1 µM,100%
same,residual activity,MYLK (human); compound 1.0 µM,72%
same,residual activity,[2]; compound 0.1 µM,50%
same,residual activity,[2]; compound 1.0 µM,14%
same,residual activity,PAK6 (human); compound 0.1 µM,62%
same,residual activity,PAK6 (human); compound 1.0 µM,24%
same,residual activity,PKN2 (human); compound 0.1 µM,57%
same,residual activity,PKN2 (human); compound 1.0 µM,27%
same,residual activity,PRKCZ (human); compound 1.0 µM,78%
same,residual activity,SRC (human); compound 0.1 µM,7%
same,residual activity,SRC (human); compound 1.0 µM,3%
same,residual activity,[3]; compound 0.1 µM,119%
same,residual activity,[3]; compound 1.0 µM,73%
same,residual activity,SYK (human); compound 0.1 µM,58%
same,residual activity,SYK (human); compound 1.0 µM,13%
same,residual activity,TAOK1 (human); compound 0.1 µM,95%
same,residual activity,TAOK1 (human); compound 1.0 µM,74%
same,residual activity,TTK (human); compound 0.1 µM,81%
same,residual activity,TTK (human); compound 1.0 µM,64%
same,residual activity,YES1 (human); compound 0.1 µM,16%
same,residual activity,YES1 (human); compound 1.0 µM,7%
Cc1nc(-c2ccc(OCC(C)C)c(C#N)c2)sc1C(=O)O,residual activity,[1]; compound 1.0 µM,109%
same,residual activity,[1]; compound 10.0 µM,108%
same,residual activity,AURKA (human); compound 10.0 µM,94%
same,residual activity,AURKB (human); compound 1.0 µM,95%
same,residual activity,AURKB (human); compound 10.0 µM,96%
same,residual activity,CHEK1 (human); compound 1.0 µM,85%
same,residual activity,CHEK1 (human); compound 10.0 µM,86%
same,residual activity,CSNK1D (human); compound 1.0 µM,79%
same,residual activity,CSNK1D (human); compound 10.0 µM,93%
same,residual activity,EEF2K (human); compound 1.0 µM,102%
same,residual activity,EEF2K (human); compound 10.0 µM,95%
same,residual activity,EPHB1 (human); compound 1.0 µM,118%
same,residual activity,EPHB1 (human); compound 10.0 µM,103%
same,residual activity,EPHB4 (human); compound 1.0 µM,93%
same,residual activity,EPHB4 (human); compound 10.0 µM,79%
same,residual activity,FGFR1 (human); compound 10.0 µM,103%
same,residual activity,FLT1 (human); compound 1.0 µM,83%
same,residual activity,FLT1 (human); compound 10.0 µM,71%
same,residual activity,GCK (human); compound 1.0 µM,85%
same,residual activity,GCK (human); compound 10.0 µM,86%
same,residual activity,GSK3B (human); compound 1.0 µM,90%
same,residual activity,GSK3B (human); compound 10.0 µM,74%
same,residual activity,HIPK1 (human); compound 1.0 µM,90%
same,residual activity,HIPK1 (human); compound 10.0 µM,95%
same,residual activity,HIPK2 (human); compound 1.0 µM,100%
same,residual activity,HIPK2 (human); compound 10.0 µM,98%
same,residual activity,IGF1R (human); compound 1.0 µM,93%
same,residual activity,IGF1R (human); compound 10.0 µM,89%
same,residual activity,MAP2K2 (human); compound 1.0 µM,77%
same,residual activity,MAP2K2 (human); compound 10.0 µM,73%
same,residual activity,MAP3K1 (human); compound 1.0 µM,106%
same,residual activity,MAP3K1 (human); compound 10.0 µM,96%
same,residual activity,MAP3K5 (human); compound 10.0 µM,127%
same,residual activity,MAP3K9 (human); compound 1.0 µM,69%
same,residual activity,MAP3K9 (human); compound 10.0 µM,47%
same,residual activity,MAPK1 (human); compound 1.0 µM,105%
same,residual activity,MAPK10 (human); compound 1.0 µM,99%
same,residual activity,MAPK10 (human); compound 10.0 µM,92%
same,residual activity,MAPK13 (human); compound 1.0 µM,103%
same,residual activity,MAPK13 (human); compound 10.0 µM,97%
same,residual activity,MAPK9 (human); compound 1.0 µM,90%
same,residual activity,MAPK9 (human); compound 10.0 µM,86%
same,residual activity,MARK4 (human); compound 1.0 µM,96%
same,residual activity,MARK4 (human); compound 10.0 µM,85%
same,residual activity,MELK (human); compound 1.0 µM,84%
same,residual activity,MELK (human); compound 10.0 µM,87%
same,residual activity,MYLK (human); compound 1.0 µM,101%
same,residual activity,MYLK (human); compound 10.0 µM,79%
same,residual activity,[2]; compound 1.0 µM,95%
same,residual activity,[2]; compound 10.0 µM,90%
same,residual activity,PAK6 (human); compound 1.0 µM,97%
same,residual activity,PAK6 (human); compound 10.0 µM,107%
same,residual activity,PKN2 (human); compound 1.0 µM,120%
same,residual activity,PRKCZ (human); compound 1.0 µM,93%
same,residual activity,PRKCZ (human); compound 10.0 µM,96%
same,residual activity,SRC (human); compound 1.0 µM,97%
same,residual activity,SRC (human); compound 10.0 µM,78%
same,residual activity,[3]; compound 1.0 µM,86%
same,residual activity,[3]; compound 10.0 µM,85%
same,residual activity,SYK (human); compound 1.0 µM,158%
same,residual activity,SYK (human); compound 10.0 µM,117%
same,residual activity,TAOK1 (human); compound 1.0 µM,105%
same,residual activity,TAOK1 (human); compound 10.0 µM,101%
same,residual activity,TTK (human); compound 1.0 µM,89%
same,residual activity,TTK (human); compound 10.0 µM,87%
same,residual activity,YES1 (human); compound 1.0 µM,117%
